Experimental data reported in patent US20090138208A1, “IMMUNOGLOBULIN G BINDING POCKET” (GE HEALTHCARE BIO-SCIENCES AB, priority 2002, published 2009).
Counter-ions that a name gives are not always drawn.

Molecular target: human Fab of κ-type (Homo sapiens, UniProt P01834+P01857)
Experiment: STD NMR screening (1D saturation transfer difference) for binding to antibody
Set-up: key: 0 no; 1 weak; 2 strong signal
Details: 0.5 mM ligand; for NMR signal conc 1: 500 nM antibody, 298 K; for NMR signal conc 2: 100 nM antibody; for NMR signal conc 3: 20 nM antibody
Procedure: All NMR experiments were performed at 298 K on a Bruker Avance 500 MHz spectrometer. The 1D saturation transfer difference method (STD NMR) was used as screening assay (Mayer M. and Meyer B. 1999. Characterization of Ligand Binding by Saturation Transfer Difference NMR Spectroscopy. Angew. Chem., Int. Ed. 38: 1784-1788) using several antibody concentrations in order to differentiate between compounds with different binding strength (Peng J. W., Lepre C. A., Fejzo J., Abdul-Manan N. and Moore J. M. 2001. Nuclear Magnetic Resonance-Based Approaches for Lead Generation in Drug Discovery. Methods in Enzymology. 338: 202-230). The antibody used was a human Fab of κ-type. In all cases ligands were tested one-by-one. On-resonance irradiation was set at 0 ppm and off-resonance irradiation was set at −40 ppm. Irradiation time in each scan was 2 s and 16 K data points were collected with 1024 scans in total. Compounds for testing were dissolved in DMSOd6 to a concentration of 50 mM and 5 μL of the concentrated ligand solution was added to 495 μL buffer solution. The samples thus consisted of 0.5 mM ligand, 20 mM phosphate buffer, 100 mM NaCl and […] in D2O at pD 7.5, uncorrected reading on pH-meter.
Compounds were initially tested for binding with 0.5 μM antibody. Interesting ligands were further tested with protein concentrations of 100 or 20 nM. A one-dimensional ^1H-spectrum was acquired first and subsequently a saturation transfer difference (STD) spectrum was acquired. Each analysis took 60 minutes on the spectrometer. […] The analysis was setup for automation so that several samples could be analysed over night (usually 10-15 samples/night).
As many as 46 of the virtual screening hits were tested with NMR according to the procedure described above. The results from NMR screening together with additional compound data are compiled in Table 1 below. In total 24 compounds gave a positive result in the first round with the highest antibody concentration (500 nM). These 24 compounds were subjected to a second round with an antibody concentration of 100 nM. The 4 compounds showing the strongest signal in the second round were tested for binding in a third round with 20 nM antibody. Three of the compounds in the third round gave a positive result and where thus designated as the strongest binders to the antibody out of the 46 tested compounds.

Chain of human Fab of κ-type (P01857 with tags, fused parts or gaps, other chains not shown): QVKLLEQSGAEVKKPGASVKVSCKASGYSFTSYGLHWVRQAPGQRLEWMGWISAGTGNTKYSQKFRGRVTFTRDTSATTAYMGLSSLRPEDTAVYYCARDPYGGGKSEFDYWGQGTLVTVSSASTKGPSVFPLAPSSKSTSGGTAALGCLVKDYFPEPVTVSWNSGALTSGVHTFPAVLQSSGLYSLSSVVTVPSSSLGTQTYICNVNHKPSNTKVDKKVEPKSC

Q: `O=C(c1ccccn1)C(O)c1ccccn1` (stereo not drawn) [AB_0000510, alpha-pyridoin] was tested. Which “NMR signal conc 1” value did it give?
A: 0

Q: `CC1=NN(c2cccc(Cl)c2)C(=O)C1` [AB_0000530, 1-(3-chlorophenyl)-3-methyl-2-pyrazolin-5-one] was tested. Which “NMR signal conc 1” value did it give?
A: 0

Q: Which “NMR signal conc 1” value does the source give for `O=C1C(=O)N(c2ccccc2)C(=O)N1c1ccccc1` [AB_0000540, 1,3-diphenylparabanic acid] here?
A: 0

Q: With `Cc1cc(C)nc(SCC(=O)Nc2ccc(F)c(Cl)c2)n1` [AB_0000580, n1-(3-chloro-4-fluorophenyl)-2-[(4,6-dimethylpyrimidin-2-yl)thio]acetamide] as the molecule, how does the “NMR signal conc 2” value read?
A: 0

Q: What about the “NMR signal conc 1” value of the same molecule?
A: 1

Q: What does the source list for `c1ccc(-c2nnc3ccccc3n2)cc1` [AB_0000600, 3-phenyl-1,2,4-benzotriazine]?
A: NMR signal conc 2: 1; NMR signal conc 1: 1

Q: How did the “NMR signal conc 1” value turn out when `O=C1c2ccncc2C(=O)N1c1ccc(Cl)cc1` [AB_0000610, 2-(4-chlorophenyl)-2,3-dihydro-1h-pyrrolo[3,4-c]pyridine-1,3-dione] was run?
A: 0

Q: For `O=C(Cc1ncon1)Nc1ccc(F)c(F)c1F` [AB_0000630, n1-(2,3,4-trifluorophenyl)-2-(1,2,4-oxadiazol-3-yl)acetamide], which “NMR signal conc 1” value is on record?
A: 0

Q: Which “NMR signal conc 2” value does the source give for `COC(=O)NC(=O)c1nc(-c2ccccc2)c(C)o1` [AB_0000670, methyl n-[(5-methyl-4-phenyl-1,3-oxazol-2-yl)carbonyl]carbamate] here?
A: 0

Q: And the “NMR signal conc 1” value?
A: 2

Q: How did the “NMR signal conc 1” value turn out when `O=C(Cc1ncon1)Nc1ccc(F)cc1F` [AB_0000690, n1-(2,4-difluorophenyl)-2-(1,2,4-oxadiazol-3-yl)acetamide] was run?
A: 0

Q: For `c1ccc(-c2nnc(-c3ccccn3)nn2)nc1` [AB_0000700, 3,6-di-2-pyridyl-1,2,4,5-tetrazine], which “NMR signal conc 1” value is on record?
A: 0

Q: Which “NMR signal conc 1” value does the source give for `O=C1C(=Cc2ccccc2)C(=O)c2ccccc21` [AB_0000730, 2-benzylidene-1,3-indandione] here?
A: 0

Q: With `O=C(Nc1ccc(F)cc1)Oc1noc(-c2ccccc2)n1` [AB_0000740, 5-phenyl-1,2,4-oxadiazol-3-yl n-(4-fluorophenyl)carbamate] as the molecule, how does the “NMR signal conc 1” value read?
A: 0

Q: For `CC1(C)CC(=O)c2sc(NC(=O)c3cccnc3)nc2C1` [AB_0000750, n-(5,5-dimethyl-7-oxo-4,5,6,7-tetrahydro-benzothiazol-2-yl)-nicotinamide], which “NMR signal conc 1” value is on record?
A: 0

Q: Which “NMR signal conc 2” value does the source give for `Sc1nnc(-c2csc(-c3ccccc3)n2)o1` [AB_0000760, 5-(2-phenyl-1,3-thiazol-4-yl)-1,3,4-oxadiazol-2-ylhydrosulfide] here?
A: 0

Q: And the “NMR signal conc 1” value?
A: 1

Q: How did the “NMR signal conc 1” value turn out when `O=C(CC1OC(=O)c2ccccc21)c1ccccn1` (centres unmarked) [AB_0000790, 3-[2-oxo-2-(2-pyridyl)ethyl]-1,3-dihydroisobenzofuran-1-one] was run?
A: 0

Q: Which results are given for `OCC(Oc1ccccc1)c1ccccc1` (centres unmarked) [AB_0000810, 2-phenoxy-2-phenyl-1-ethanol]?
A: NMR signal conc 2: 1; NMR signal conc 1: 2

Q: Which “NMR signal conc 1” value does the source give for `O=C1SC(Br)C(=O)N1c1ccccc1` (centres unmarked) [AB_0000880, 5-bromo-3-phenyl-thiazolidine-2,4-dione] here?
A: 0

Q: With `O=C(c1ccc2ccccc2c1)n1ccnc1` [AB_0000900, 1-(2-naphthoyl)imidazole] as the molecule, how does the “NMR signal conc 1” value read?
A: 0

Q: How did the “NMR signal conc 3” value turn out when `COc1ccc(CC(C)=O)cc1Br` [AB_0000910, 3-bromo-4-methoxyphenylacetone] was run?
A: 0

Q: And the “NMR signal conc 2” value?
A: 2

Q: What about the “NMR signal conc 1” value of the same molecule?
A: 2

Q: Which “NMR signal conc 1” value does the source give for `O=C1C=C(Cl)C(=O)N1c1ccccc1` [AB_0000930, 3-chloro-1-phenyl-pyrrole-2,5-dione] here?
A: 0

Q: How did the “NMR signal conc 1” value turn out when `CCCCc1c(O)nc2ccccn2c1=O` [AB_0000990, 3-butyl-2-hydroxy-4h-pyrido[1,2-a]pyrimidin-4-one] was run?
A: 0

Q: `OC(CNCc1ccccc1)C(F)(F)F` (centres unmarked) [AB_0001000, 3-(benzylamino)-1,1,1-trifluoro-2-propanol] was tested. Which “NMR signal conc 2” value did it give?
A: 0

Q: What about the “NMR signal conc 1” value of the same molecule?
A: 1

Q: Which results are given for `N#CCc1ccc(C(=O)c2ccccc2F)s1` [AB_0001010, 2-[5-(2-fluorobenzoyl)-2-thienyl]acetonitrile]?
A: NMR signal conc 3: 2; NMR signal conc 2: 2; NMR signal conc 1: 2

Q: How did the “NMR signal conc 2” value turn out when `Fc1cc(F)cc(Cc2nc(-c3cccs3)no2)c1` [AB_0001020, 5-(3,5-difluorobenzyl)-3-(2-thienyl)-1,2,4-oxadiazole] was run?
A: 0

Q: And the “NMR signal conc 1” value?
A: 1

Q: With `O=Cc1cccc(C(F)(F)F)c1Cl` [AB_0001030, 2-chloro-3-(trifluoromethyl)benzaldehyde] as the molecule, how does the “NMR signal conc 2” value read?
A: 0

Q: And the “NMR signal conc 1” value?
A: 1

Q: `CC(C)=CC1=C(O)C(=O)c2ccccc2C1=O` [AB_0001040, 2-hydroxy-3-(2-methyl-1-propenyl)-1,4-naphthoquinone] was tested. Which “NMR signal conc 2” value did it give?
A: 1

Q: What about the “NMR signal conc 1” value of the same molecule?
A: 1

Q: How did the “NMR signal conc 2” value turn out when `N=c1sccn1CC(=O)c1ccc2ccccc2c1` [AB_0001060, 2-(2-imino-thiazol-3-yl)-1-naphthalen-2-yl-ethanone] was run?
A: 0

Q: What about the “NMR signal conc 1” value of the same molecule?
A: 2

Q: How did the “NMR signal conc 2” value turn out when `CCn1ccnc1CC1COc2ccccc2O1` (centres unmarked) [AB_0001070, imiloxan hydrochloride] was run?
A: 1

Q: And the “NMR signal conc 1” value?
A: 1

Q: Which “NMR signal conc 1” value does the source give for `CC1CN=C(SCc2ccccc2)N1.Cl` (centres unmarked) [AB_0001080, 2-(benzylthio)-5-methyl-4,5-dihydro-1h-imidazol-3-ium chloride] here?
A: 0

Q: What does the source list for `O=C1C=CC(=O)N1c1cccc(Cl)c1` [AB_0001090, n-(3-chlorophenyl)-maleimide]?
A: NMR signal conc 2: 0; NMR signal conc 1: 1

Q: `CCOC(=O)c1c[nH]c2ccccc2c1=O` [AB_0001100, ethyl 4-oxo-1,4-dihydroquinoline-3-carboxylate] was tested. Which “NMR signal conc 1” value did it give?
A: 0

Q: With `CSCCNC(=O)c1nc2ccccc2c(=O)n1N` [AB_0001130, 3-amino-n-[2-(methylthio)ethyl]-4-oxo-3,4-dihydroquinazoline-2-carboxamide] as the molecule, how does the “NMR signal conc 1” value read?
A: 0

Q: How did the “NMR signal conc 2” value turn out when `Clc1ccc(COn2ccnc2)cc1Cl` [AB_0001150, 1-[(3,4-dichlorobenzyl)oxy]-1h-imidazole] was run?
A: 0

Q: And the “NMR signal conc 1” value?
A: 2

Q: With `OC(CNCc1ccc(Cl)cc1Cl)C(F)(F)F` (centres unmarked) [AB_0001170, 3-[(2,4-dichlorobenzyl)amino]-1,1,1-trifluoro-2-propanol] as the molecule, how does the “NMR signal conc 1” value read?
A: 0

Q: How did the “NMR signal conc 1” value turn out when `O=C(O)c1ccnn(-c2ccccc2)c1=O` [AB_0001180, 3-oxo-2-phenyl-2,3-dihydro-4-pyridazinecarboxylic acid] was run?
A: 0

Q: How did the “NMR signal conc 2” value turn out when `c1ccc(CCn2cc(-c3ccncc3)cn2)cc1` [AB_0001190, 4-[1-(2-phenylethyl)-(1h)-pyrazol-4-yl]pyridine] was run?
A: 0

Q: And the “NMR signal conc 1” value?
A: 2

Q: For `COC(=O)c1ccc2ccccc2c1O` [AB_0001200, methyl 1-hydroxy-2-naphthoate], which “NMR signal conc 2” value is on record?
A: 0

Q: And the “NMR signal conc 1” value?
A: 1

Q: What does the source list for `FC(F)(F)c1cccc(-n2ccnc2)c1` [AB_0001220, 1-(3-trifluoromethylphenyl)imidazole]?
A: NMR signal conc 2: 0; NMR signal conc 1: 2

Q: `O=C(COc1ccc2ccccc2c1)ON1C(=O)CCC1=O` [AB_0001230, (2-naphthoxy)acetic acid, n-hydroxysuccinimide ester] was tested. Which “NMR signal conc 1” value did it give?
A: 0

Q: With `COC(=O)C1OC1c1cc(Cl)ccc1OC` (centres unmarked) [AB_0001240, methyl 3-(5-chloro-2-methoxyphenyl)-2,3-epoxypropionate] as the molecule, how does the “NMR signal conc 2” value read?
A: 1

Q: And the “NMR signal conc 1” value?
A: 1

Q: For `CN(C)C(=O)N(C)c1ccc(Cl)c(Cl)c1` [AB_0001250, 1-(3,4-dichlorophenyl)-1,3,3-trimethylurea], which “NMR signal conc 3” value is on record?
A: 1

Q: And the “NMR signal conc 2” value?
A: 2

Q: And the “NMR signal conc 1” value?
A: 2

Q: Which “NMR signal conc 1” value does the source give for `S=C(Oc1ccccn1)c1csc(C2COc3ccccc3O2)n1` (centres unmarked) [AB_0001260, 2-pyridyl 2-(2,3-dihydro-1,4-benzodioxin-2-yl)-1,3-thiazole-4-carbothioate] here?
A: 0

Q: For `OC(CNCc1ccc(Cl)cc1)CSc1ccccc1` (centres unmarked) [AB_0001270, 1-[(4-chlorobenzyl)amino]-3-(phenylthio)propan-2-ol], which “NMR signal conc 2” value is on record?
A: 0

Q: And the “NMR signal conc 1” value?
A: 1

Q: What does the source list for `Clc1ccc(OCc2noc(CSc3ccccn3)n2)cc1` [AB_0001290, 3-[(4-chlorophenoxy)methyl]-5-[(2-pyridylthio)methyl]-1,2,4-oxadiazole]?
A: NMR signal conc 2: 1; NMR signal conc 1: 2

Q: `O=C(c1cccs1)c1cnc2ccccn2c1=O` [AB_0001300, 3-(2-thienylcarbonyl)-4h-pyrido[1,2-a]pyrimidin-4-one] was tested. Which “NMR signal conc 2” value did it give?
A: 0

Q: And the “NMR signal conc 1” value?
A: 1
